Test results taken from patent publication US10881679B2, “Application of a phillyrin/phillygeninin composition in preparing a medicine or health care product for alleviating or/and treating viral diseases, and medicine or health care product for treating viral diseases” (priority 2014, dated 2021).
Marks after values point to notes of the source that are not given here.

Key:
[1] = system: rat paw swelling induced by carrageenin; assay: Rat paw swelling induced by carrageenin; format: in vivo, Wistar rats; conditions: 100 mg/kg
Description: Each group has 10 rats. Rats in each group were all administered by […] through the sublingual vein. Normal volume of the right hind paw of each rat in each group was measured in capillary magnification measurement method. In order to avoid errors, the measurement should be carried out in a fixed position and operated by the same person before and after administration. A mean of the two measurement values was taken as the normal volume of the right hind paw of a rat before administration. […] The difference between the groups was compared by inter-group t test processing through the difference percentage (swelling ratio) of the paw volume before and after the induced rat inflammation. [formula] Results

[2] = system: rabbit fever induced by typhoid and paratyphoid vaccine; assay: Rabbit fever induced by typhoid and paratyphoid vaccine; format: in vivo, Japanese big-ear white rabbits; conditions: 50 mg/kg i.g.
Description: Male Japanese big-ear white rabbits with a weight 1.5˜2.0 kg were used. Before the test, WSC-411P portable digital thermometer was used to measure the normal rectal temperature twice (with certain interval for each time), and the average value was taken as the normal body temperature of rabbits. […] Each group has 6 rabbits, and the test was repeated 3 times for each group. Rabbits were fixed into a fixator. The blank control group was intravenously injected with normal saline of 1 ml/kg via the ear margin; The model control group and each drug group were intravenously injected with typhoid and paratyphoid vaccines of 0.8 ml/kg via the ear margin. After the body temperatures of the rabbits increased by 1° C. or more (requiring about 1˜1.5 h, and this test was limited to 1 h), the blank control group and the model group were administered intragastrically with 0.5% carboxymethycellulose of 1 ml/kg, and the drug groups were administered intragastrically with phillyrin/phillygeninin compositions and paracetamol respectively. The rectal temperature was measured after administration for 30, 60, 90, 120, 180 and 240 min to observe the changes in the body temperature, and difference between the groups was compared by inter-group t test processing through antipyretic percentage.

[3] = system: rat fever induced by beer yeast; assay: Rat fever induced by beer yeast (Saccharomyces cerevisiae); format: in vivo, Wistar rats; conditions: 100 mg/kg i.g.
Description: Male Wistar rats with a weight of 180˜200 g were used. Normal anal temperature of each rat was measured twice (at a certain interval) with a WSC-411P portable digital thermometer, and a mean of the two measurement values was taken as a normal body temperature of the rat. Then, 300 rats with body temperature at 36.5˜38° C. were selected and randomly divided into 30 groups by weight: model groups (0.5% methyl cellulose), phillyrin/phillygeninin compositions A and B that are divided into low, medium and high dose groups (2.5, 5, 10 mg/kg) respectively, phillyrin groups (13 mg/kg), phillygeninin groups (13 mg/kg), and positive drug paracetamol groups (100 mg/kg). Each group has 10 rates, and the test is repeated 3 times for each group. 10 mL/kg of 10% fresh Saccharomyces cerevisiae suspension was subcutaneously injected to the back of the rats of each group to induce fever. After administration of 10% fresh Saccharomyces cerevisiae suspension for 6.0 h, the phillyrin/phillygeninin composition and the paracetamol positive drug were administered by intragastric administration, and the same volume of 0.5% methyl cellulose is administrated to the model group by intragastric administration. Rectal temperatures were respectively measured at 1, 2, 3 and 4 h after the administration. Changes in the body temperature were observed and difference between the groups was compared by inter-group t test processing through antipyretic percentage. The above test was repeated totally 3 times.

[4] = system: sweat gland epithelial cells of rat paws; assay: Sweat secretion of rat paws (histomorphological observation method); format: in vivo, Wistar rats; conditions: 35.0 mg/kg s.c., 30 min after administration
From the text: This test is based on a mechanism that when a rat is in an excited state, in addition to the increase of sweat secretion of sweat glands, the morphology of sweat gland epithelial cells changes accordingly. Under an optical microscope, it can be seen that the sweat gland epithelial cell vacuoles increase in number and expand. Under an electron microscope, such expanded vacuoles appear to be mitochondria in the sweat gland epithelial cell swelling, breakage and fusion and expansion of secretory vesicle. Therefore, through histomorphological observation of sweat gland epithelial tissue of a rat paw, secretory activities of the sweat gland can be known.
300 Wistar rats with equal male and female number, weighing 120˜160 g were used. These rats were randomly divided into 30 groups by weight and gender: control groups (0.5% of methyl cellulose), phillygeninin groups, phillyrin groups, low, medium and high dose groups (2.5, 5, 10 mg/kg) of phillyrin/phillygeninin compositions A and B separately, and positive drug pilocarpine groups (35 mg/kg). Each group has 10 rats, the test is repeated 3 times for each group. Pilocarpine solution was administered by subcutaneous injection, the remaining groups were subjected to intragastric administration. After administration of the 0.5% of methyl cellulose in the control group for one hour, after administration of the pilocarpine in the positive drug group for 30 min, and after administration of the phillyrin, the phillygeninin and the phillyrin/phillygeninin composition for one hour, the right hind limb was instantly cut off at the ankle joint to immediately take down the footpad of the right hind limb and placed into 10% of formaldehyde solution. The footpads were fixed, dehydrated, embedded, sliced and stained with HE by using conventional methods. Changes in sweat gland epithelial cells of the rat paws from each group were observed under an optical microscope, to mainly observe the percentage of vacuolization. The differences among the various groups was performed through X^2 test for statistical analysis. The above test was repeated 3 times. Percentage of vacuolization=(the number of vacuolized sweat glands)/(the number of sweat glands observed)×100%.

[5] = system: sweat secretion of rat paws; assay: Sweat secretion of rat paws (coloring method); format: in vivo, Wistar rats; conditions: 35.0 mg/kg s.c.
From the text: The test is based on a mechanism that distribution of sweat glands is present in footpads of rat paws, the amount of sweat secretion and variation thereof can be observed by using a mechanism that a purple color can be produced by contacting iodine and starch when encountered with sweat.
500 Wistar rats with equal male and female number were used, weighing of 120˜150 g. These rats were randomly divided into 50 groups by weight and gender, i.e., namely 5 groups for the control groups (0.5% methyl cellulose), 5 groups for phillyrin groups, 5 groups for phillygeninin groups, 5 groups for the low, medium and high dose groups (2.5, 5, 10 mg/kg, respectively) of phillyrin/phillygeninin compositions A and B respactively, and 5 groups for the positive drug pilocarpine groups (35 mg/kg). Each group has 10 rats, 10 groups of rates are used for each test, which has 5 time periods (1, 5, 10, 15 and 20 min). The rats were placed into a self-made rat fixation bag, and both hind limbs of the rats were exposed. Dirt on the right paws was gently cleaned away using cotton swabs containing anhydrous alcohol. Pilocarpine solution was administered by subcutaneous injection, the remaining groups were subjected to intragastric administration. At 1 h (30 min for the pilocarpine group) after administration, pre-existing sweat and sweat generated due to struggle on the right paw of each rat in each group was gently wiped away with dry cotton swabs, then the paws were coated with solution A (dissolving 2 g iodine in 100 ml anhydrous alcohol) of Hetian-gaoyuanshi's reagent. After complete dryness, the paws were thinly coated with solution B (uniform mixture of 50 g soluble starch and 100 ml castor oil) of Hetian-gaoyuanshi's reagent. The color and number of dark purple coloring spots (i.e. sweat spots) were carefully observed at 1, 5, 10, 15 and 20 min after the coating of the solution B respectively with magnifying glass. After the test was completed, statistical treatment was performed according to the rank sum test with two-sample comparison, thereby comparing the differences among the various groups.

adenovirus (ADV) = assay: Impact on virus-induced cytopathic effect in Vero cells (MTT): ADV; format: cell-based; conditions: ADV 100TCID50, Vero, 72 h; drug g/L as Table 1-2
parainfluenza virus [6] = format: in vivo, Kunming mice; conditions: 58.5 mg/kg/d i.g. 5 days
influenza virus [7] = format: in vivo, Kunming mice; conditions: 58.5 mg/kg/d i.g. 5 days
[8] = system: Coxsackie virus B3 (CVB3); assay: Impact on virus-induced cytopathic effect in Vero cells (MTT): CVB3; format: cell-based; conditions: CVB3 100TCID50, Vero, 72 h; drug g/L as Table 1-2
[9] = system: Coxsackievirus A16 (CoxA16); assay: Impact on virus-induced cytopathic effect in Vero cells (MTT): CoxA16; format: cell-based; conditions: CoxA16 100TCID50, Vero, 72 h; drug g/L as Table 1-2
enterovirus EV71 = assay: Impact on virus-induced cytopathic effect in Vero cells (MTT): EV71; format: cell-based; conditions: EV71 100TCID50, Vero, 72 h; drug g/L as Table 1-2
influenza virus [10] = assay: Impact on virus-induced cytopathic effect in Vero cells (MTT): influenza virus; format: cell-based; conditions: influenza virus 100TCID50, Vero, 72 h; drug g/L (Table 1-2): phillyrin 0.01, Phillygeninin 0.02, compositions A, B 0.01, Ribavirin 0.70, oseltamivir phosphate 0.30
[11] = system: respiratory syncytial virus (RSV); assay: Impact on virus-induced cytopathic effect in Vero cells (MTT): RSV; format: cell-based; conditions: RSV 100TCID50, Vero, 72 h; drug g/L as Table 1-2
parainfluenza virus [12] = assay: Impact on virus-induced cytopathic effect in Vero cells (MTT): parainfluenza virus; format: cell-based; conditions: parainfluenza virus 100TCID50, Vero, 72 h; drug g/L as Table 1-2
[13] = system: Herpes zoster simplex viruses type I (HSV-I); assay: Impact on virus-induced cytopathic effect in Vero cells (MTT): HSV-I; format: cell-based; conditions: HSV-I 100TCID50, Vero, 72 h; drug g/L as Table 1-2
[14] = 10 min after coating solution B
[15] = 15 min after coating solution B
[16] = 20 min after coating solution B

## CC(=O)Oc1ccccc1C(=O)O [Aspirin]
[1]; 15 min after inflammation induction
  Swelling percentage (%): 8.90 ± 6.70 %
[1]; 30 min after inflammation induction
  Swelling percentage (%): 15.6 ± 12.2 %
[1]; 60 min after inflammation induction
  Swelling percentage (%): 20.3 ± 10.9 %
[1]; 120 min after inflammation induction
  Swelling percentage (%): 21.6 ± 12.1 %
[1]; 180 min after inflammation induction
  Swelling percentage (%): 26.1 ± 21.1 %
[1]; 240 min after inflammation induction
  Swelling percentage (%): 26.1 ± 16.3 %
[1]; 300 min after inflammation induction
  Swelling percentage (%): 34.9 ± 14.6 %
[1]; 360 min after inflammation induction
  Swelling percentage (%): 31.9 ± 12.2 %

## CC(=O)Nc1ccc(O)cc1 [Paracetamol]
[2]; 30 min after administration
  Body temperature: 40.53 ± 0.65 °C
  antipyretic percentage (%): −1.14 ± 0.56%
[2]; 60 min after administration
  Body temperature: 40.10 ± 0.49 °C
  antipyretic percentage (%): −2.18 ± 0.17%
[2]; 90 min after administration
  Body temperature: 39.83 ± 0.58 °C
  antipyretic percentage (%): −2.83 ± 0.15%
[2]; 120 min after administration
  Body temperature: 39.72 ± 0.56 °C
  antipyretic percentage (%): −3.11 ± 0.20%
[2]; 180 min after administration
  Body temperature: 39.61 ± 0.41 °C
  antipyretic percentage (%): −3.38 ± 0.22%
[2]; 240 min after administration
  Body temperature: 39.53 ± 0.47 °C
  antipyretic percentage (%): −3.58 ± 0.38%
[3]; 1 h after administration
  Body temperature: 38.66 ± 0.59 °C
  antipyretic percentage (%): −2.07 ± 0.54 %
[3]; 2 h after administration
  Body temperature: 38.19 ± 0.59 °C
  antipyretic percentage (%): −3.27 ± 0.77 %
[3]; 3 h after administration
  Body temperature: 37.98 ± 0.19 °C
  antipyretic percentage (%): −3.80 ± 1.43 %
[3]; 4 h after administration
  Body temperature: 37.84 ± 0.32 °C
  antipyretic percentage (%): −4.15 ± 1.59 %

## CC[C@@H]1C(=O)OC[C@@H]1Cc1cncn1C [Pilocarpine]
[4]
  Number of sweat glands of vacuole: 57
  percentage of vacuolization (%): 27.40*** %
[5]; 1 min after coating solution B
  Animal number of sweat spots of level +: 1 rats
  Animal number of sweat spots of level ++: 3 rats
  Animal number of sweat spots of level +++: 1 rats
  Animal number of sweat spots of level ++++: 5 rats
  Animal number of sweat spots of level −: 0 rats
[5]; 5 min after coating solution B
  Animal number of sweat spots of level +: 1 rats
  Animal number of sweat spots of level ++: 2 rats
  Animal number of sweat spots of level +++: 1 rats
  Animal number of sweat spots of level ++++: 6 rats
  Animal number of sweat spots of level −: 0 rats
[5]; [14]
  Animal number of sweat spots of level +: 0 rats
  Animal number of sweat spots of level ++: 2 rats
  Animal number of sweat spots of level +++: 1 rats
  Animal number of sweat spots of level ++++: 6 rats
  Animal number of sweat spots of level −: 0 rats
[5]; [15]
  Animal number of sweat spots of level +: 0 rats
  Animal number of sweat spots of level ++: 2 rats
  Animal number of sweat spots of level +++: 1 rats
  Animal number of sweat spots of level ++++: 6 rats
  Animal number of sweat spots of level −: 0 rats
[5]; [16]
  Animal number of sweat spots of level +: 0 rats
  Animal number of sweat spots of level ++: 2 rats
  Animal number of sweat spots of level +++: 1 rats
  Animal number of sweat spots of level ++++: 6 rats
  Animal number of sweat spots of level −: 0 rats

## NC(=O)c1ncn([C@@H]2O[C@H](CO)[C@@H](O)[C@H]2O)n1 [Ribavirin]
Adenovirus (ADV)
  antiviral effective rate (ER %): 0.43%
Parainfluenza virus [6]
  Hemagglutination titer (InX): 23.22
  Inhibition rate (%) of hemagglutination titer: 29.86%
Influenza virus [7]
  Hemagglutination titer (InX): 21.91 ± 1.050
  Inhibition rate (%) of hemagglutination titer: 32.39%
[8]
  antiviral effective rate (ER %): 13.44%
[9]
  antiviral effective rate (ER %): 0.70%
Enterovirus EV71
  antiviral effective rate (ER %): 4.25%
Influenza virus [10]
  antiviral effective rate (ER %): 57.49** %
[11]
  antiviral effective rate (ER %): 50.08* %
Parainfluenza virus [12]
  antiviral effective rate (ER %): 91.56** %
[13]
  antiviral effective rate (ER %): 62.92** %
